Data reported in article PMC4603696, “Discovery and characterization of novel small-molecule inhibitors targeting nicotinamide phosphoribosyltransferase” (Scientific Reports, 2015).

Key:
[1] = tested on: NAD level of HepG2 cells; experiment: Cellular NAD level, spectrophotometric enzymatic cycling assay; type: cell-based, human
Excerpt: F0 was the average d fluo rescen ce of si x backgr ound control s, repres ent ing zero activ ity from a si mul ated enz ym e reaction wit h on ly NAMP T but no NAM and com pound; F100 % was the average d fluorescen ce of si x ref erence cont rols, repr ese nt ing 100% activ ity from int act enz ym e reaction w ithou t com pound p ert ur bation.
Compounds with Activ ity% less tha n 40% were consi dered as inhi bi tor s and subj ect ed to a secondary screen inhi bition valida tion, in whi ch anot her backgr oun d cont rol (FC0), a si mul ated enz ym e reaction with NAMP Tand com pound but no NAM, was int roduced to elimina te the di rec t and /or ind irect inf lue nc e fro m compou nd. At thi s st age , the Activ ity% was cal culated accor ding t o e qua tion ( 2) :
In the screeni ng, the si gna l-to- noi se (S/N) rat io was cal cul ated usi ng the equa tion: (Mean signal -Mean backgr oun d) / SD backgr oun d4. Coe fficient s of vari atio n (CV) were the ratio of SD to mean. The Z ’f act or w as de term ine d by e qua tion (3) 5:
Z' −= (3)1−3(S Dhi ghsigna l+SDlowsigna l)
Mean hi gh signa l Meanlow signa l
Determ inat ion of IC50 for NAMPT inhi bitor s […]
vari ous con cent ration s were adde d int o 96-well pl ate. The pl ate was inc uba ted at 37 °C for 5 min after addition of 16.5 μl react ion buf fer cont aini ng N AMP T. The enz ym e reactions were ini tiated by 4.5 μl NAM (1.1 1 μM) follow ing NMN measurem ent as de scri bed above . […]
Cellul ar level of NAD was measured by spe ctrophot om etric enz ym atic cyc ling assa y, as de scri bed pr evi ousl y6-8. […]
Cell vi ability was de termine d by ou r previ ous method9 usi ng the Cell Counting Kit-8 (CCK -8, Dojindo, Ja pa n). […] Th e absor banc e at 450 nm (A450) was de tected by a pl ate reade r. […]
Briefly, cel ls were se ede d int o 96-well pl ates, cul tur ed overni ght , and trea ted with correspond ing com poun ds for 72 h. […] Sul for hoda mine B in the cells was di sso lved in 10 mmol/L Tris-HCl and was measured at 515 nm usi ng a multiw ell spect ropho tometer […]

[2] = tested on: HepG2 cells; experiment: Cell counting kit-8 (CCK-8) cell viability assay in HepG2; type: cell-based, human
Experimental: Cellc ount ing k it-8 (CCK-8) assa y
Cell vi ability was de termine d by ou r previ ous method9 usi ng the Cell Counting Kit-8 (CCK -8, Dojindo, Ja pa n). In hu man he pa tocellu lar carcinom a cell line HepG 2, cells were seede d in 96-well plate and starve d for ove r 12 h with se rum-free DMEM at 60~ 70% conf lue nc y, the n trea ted wit h com pounds or ve hicle for 24 h to 72 h accor ding to expe riment requi rement s. […]
10 μl CCK-8 sol ution was adde d to the cul ture medium and inc ub ated at 37 °C for 1 h. Th e absor banc e at 450 nm (A450) was de tected by a pl ate reade r. Each e xperi ment w as carr ied out i n t riplic ate i n thr ee r eplic ate w ells.

[3] = tested on: A549 cells; experiment: SRB assay in A549; type: cell-based, human
Experimental: (§1) Sulfor hod am ine B p rotei n st ai ning (SRB) assay
(§2) Cell pr oliferat ion was eva lua ted by sul for hod amine B pr ot ein st aini ng (SRB) assa y10-12.
(§3) Briefly, cel ls were se ede d int o 96-well pl ates, cul tur ed overni ght , and trea ted with correspond ing com poun ds for 72 h. Cells were the n fixe d with 10% trichl or oa cetic aci d and st ained with sul for hoda mine B (Sigm a). Sul for hoda mine B in the cells was di sso lved in 10 mmol/L Tris-HCl and was measured at 515 nm usi ng a multiw ell spect ropho tometer (VERSA max, Mol ecul ar Devi ces, Sunnyva le, CA). The inhi bi tion rat e on cell pr olif eratio n was cal culated for each well as (A515contr ol cells-A 515tr eated cells)/A515contr ol cells×100 % (A515:
(§4) OD va lue at 515 nm ). The averag e IC50 va lue s were de termine d by Logit method from at leas t t hr eei nde pe nde nt test s.

[4] = tested on: ovarian cancer cell line A2780; experiment: SRB assay in A2780; type: cell-based, human; details: A2780, 72 hours
Experimental: as §1, §2, §3, §4

[5] = tested on: metastatic lung cancer cell line 95-D; experiment: SRB assay in 95-D; type: cell-based, human; details: 72 hours
Experimental: as §1, §2, §3, §4

[6] = tested on: NAMPT; details: read-out: biochemical potency IC50; reported independently by Zheng et al. ref 19, 22; cited from earlier work

O=S(=O)(c1ccc(NC(=S)NCc2cccnc2)cc1)N1CCCCC1 [MS0]
decrease of cellular NAD level ([1]; HepG2, 1 μM, 24 hours): ~ 70%
IC50 ([1]; Homo sapiens, HepG2, 24 hours treatment, read-out: IC50 for reducing NAD level): 93.7 nM
cell viability (CCK-8), time course ([2]; HepG2, 10 μM, treatment for ≥36 hours): markedly inhibited
cell viability (CCK-8) ([2]; HepG2, 24 hours, up to 10 μM): almost had no changes
IC50 ([2]; Homo sapiens, HepG2, 48 h, read-out: CCK-8 assay in HepG2: IC50): 703 ± 95.4 nM
growth inhibition (SRB, in words) ([3]; A549, 72 hours): potent growth inhibition
IC50 ([3]; Homo sapiens, A549, read-out: anti-proliferation IC50, initial screen): < 5000 nM
growth inhibition (SRB, in words) [4]: potent growth inhibition
growth inhibition (SRB, in words) [5]: potent growth inhibition
